Test results from patent US20240343732A1, “COMPOUNDS FOR DEGRADATION OF CYCLIN-DEPENDENT KINASE 7(CDK7)” (QURIENT CO., LTD., priority 2021, published 2024).

Key:
CDK1 = biological target: T1, CDK1 (Homo sapiens, UniProt P06493); assay: Binding assay (FRET, LanthaScreen Eu, Tracer236) for CDK1; settings: for IC50: read-out: CDK1 IC50 (enzyme binding assay)
T1 construct: His; purchased Invitrogen PR4768C
Experimental: (§1) Inhibition activity of compound to CDK7 kinase was tested in a binding assay which was applied to the FRET (fluorescence resonance energy transfer) principle from the europium (Eu) donor fluorophore to the acceptor fluorophore on the kinase tracer. Test compounds were made to 1.125 mM of compound solution, and then this compound solution 4-fold serial diluted in 8 steps using an automated liquid handler (JANUS™, PerkinElmer). 80 nL/well of each diluted compound solution was added into the 384-well plate (Greiner, Cat #784075) first and 7.5 ul/well of working solution [5 nM of CDK7/CycH/MNAT1 (Invitrogen, Cat #PR6749B), 4 nM of Biotin anti-His Tag Antibody (Invitrogen, Cat #PV6090), and LanthaScreen® Eu-Streptavidin (Invitrogen, Cat #PV6025)] was added. After mixing the solution well, the same volume with the working solution of Tracer236 (Invitrogen, Cat #PV5592) was added into each well in the plate. The plate was incubated for 60 minutes at room temperature and then all the fluorescence were measured using Envision leader (Perkin Elmer, USA) [Laser as excitation light; […] as the first and the second emission filter]. Data was analysed using XL Fit software.
(§2) All of the synthesized compounds were screened in the above-mentioned assay procedure. To identify the inhibition activity of compounds for other CDKs including CDK1 (Invitrogen, Cat #PR4768C), CDK2 (Invitrogen, Cat #PR4448B) and CDK5 (Invitrogen, Cat #PR8543B) were tested using the same protocol under reasonable concentration of Tracer236 and kinases for each assay. The formula for the assay buffer summarized in below table.

CDK2 = biological target: T2, CDK2 (Homo sapiens, UniProt P24941); assay: Binding assay (FRET, LanthaScreen Eu, Tracer236) for CDK2; settings: for IC50: read-out: CDK2 IC50 (enzyme binding assay)
T2 construct: His; purchased Invitrogen PR4448B
Experimental: as §1, §2

CDK5 = biological target: T3, CDK5 (Homo sapiens, UniProt Q00535); assay: Binding assay (FRET, LanthaScreen Eu, Tracer236) for CDK5; settings: for IC50: read-out: CDK5 IC50 (enzyme binding assay)
T3 construct: His; purchased Invitrogen PR8543B
Experimental: as §1, §2

CDK7/CycH/MNAT1 = biological target: T4, CDK7/CycH/MNAT1 (Homo sapiens, UniProt P50613); assay: Binding assay (FRET, LanthaScreen Eu, Tracer236) for CDK7; settings: read-out: CDK7 IC50 (enzyme binding assay)
T4 construct: His; purchased Invitrogen PR6749B
Experimental: as §1, §2

CDK7 protein = biological target: T5, CDK7 protein (Homo sapiens, UniProt P50613); assay: Western blot assay for CDK7 protein degradation in A2780 cells; type: cell-based; settings: 24 hours; for DC50: read-out: Compound concentration that caused 50% CDK7 protein degradation in A2780 cells (DC50);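 for all read-outs here: A is DC50 up to 100 nM B is 100 to 1000 nM C is above 1000 nM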
T5 construct: To verify endogenous CDK7 protein degradation; endogenous in cells; host or cells: A2780 (ECACC 93112519)
Experimental: Human ovarian cancer cell line, A2780 (Cat #93112519) was obtained from ECACC. Cells were grown in RPMI-1640 media (Invitrogen, Cat #22400105) supplemented with 10% FBS (Hyclone, Cat #SH30084.03) and 1% penicillin/streptomycin (Hyclone, Cat #SV30010) and cultured at 37° C., 5% Co2 in a humidified chamber. All cell lines were routinely tested for mycoplasma.
To verify endogenous CDK7 protein degradation upon treatment of CDK7-specific degrader, the western blot assay was conducted a 24 hours' time period. 6×10^5 cells/well of A2780 cells were plated in 6-well plate. After 24 hours, the cells were treated with various concentrations of the compound corresponding range. DMSO solvent without compound served as a control and final DMSO concentration was not to exceed 0.1% of total volume. After 24 hours of incubation at 37° C., 5% Co2 incubator, cells were collected and lysed with 60 ul of lysis buffer. Collected lysates were incubated for 30 min on ice and collect supernatant through centrifugation at 12,000 rpm for 10 min at 4° C. The protein in lysates were quantified with BCA protein quantification kit (Pierce, Cat #23227) following manufacture's protocol. Cell lysates were diluted into 1 ug/ul of concentration with lysis buffer. 20 ug of protein was loaded to each well of 4˜12% Bis-Tris gel (Invitrogen, Cat #NP0336BOX) with MOPS running buffer (Invitrogen, Cat #NP0001). The proteins were transferred from gel to membrane and incubated with primary antibody as followed at 4° C. overnight; CDK7 (CST, Cat #2090S) and β-actin (Santa Cruz, Cat #sc-47778) 1:20,000. The signals were developed and acquired with ImageQuant™ LAS 4000.

T5 sequence (P50613 whole entry): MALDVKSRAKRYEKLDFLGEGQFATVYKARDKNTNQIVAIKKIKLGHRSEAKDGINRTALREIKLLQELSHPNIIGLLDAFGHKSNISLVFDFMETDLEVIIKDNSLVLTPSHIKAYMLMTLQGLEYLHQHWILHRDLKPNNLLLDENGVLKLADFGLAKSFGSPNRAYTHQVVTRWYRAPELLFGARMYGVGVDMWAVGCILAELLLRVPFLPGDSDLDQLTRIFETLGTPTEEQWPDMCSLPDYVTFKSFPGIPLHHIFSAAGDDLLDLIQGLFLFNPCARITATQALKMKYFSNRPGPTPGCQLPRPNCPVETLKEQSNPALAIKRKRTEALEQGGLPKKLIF
T4 sequence (P50613 whole entry): as above
T4 sequence (P51946 whole entry partner): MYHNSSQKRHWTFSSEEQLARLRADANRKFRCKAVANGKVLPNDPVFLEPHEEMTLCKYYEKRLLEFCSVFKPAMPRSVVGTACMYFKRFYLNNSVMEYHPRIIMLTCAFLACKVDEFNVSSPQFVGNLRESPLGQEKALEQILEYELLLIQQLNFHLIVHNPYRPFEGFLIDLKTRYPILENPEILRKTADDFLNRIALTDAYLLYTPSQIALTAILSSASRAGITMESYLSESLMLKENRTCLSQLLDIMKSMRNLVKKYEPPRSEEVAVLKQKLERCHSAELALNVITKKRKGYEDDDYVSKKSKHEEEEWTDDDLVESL
T4 sequence (P51948 whole entry partner): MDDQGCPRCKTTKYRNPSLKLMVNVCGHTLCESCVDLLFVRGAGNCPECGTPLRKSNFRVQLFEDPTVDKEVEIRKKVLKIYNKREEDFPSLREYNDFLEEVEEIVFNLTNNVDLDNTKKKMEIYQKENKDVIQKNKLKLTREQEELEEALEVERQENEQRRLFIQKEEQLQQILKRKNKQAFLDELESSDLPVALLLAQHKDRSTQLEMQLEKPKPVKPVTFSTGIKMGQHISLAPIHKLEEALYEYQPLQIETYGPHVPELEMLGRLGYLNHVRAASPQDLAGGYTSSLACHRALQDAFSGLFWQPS
T1 sequence (P06493 whole entry): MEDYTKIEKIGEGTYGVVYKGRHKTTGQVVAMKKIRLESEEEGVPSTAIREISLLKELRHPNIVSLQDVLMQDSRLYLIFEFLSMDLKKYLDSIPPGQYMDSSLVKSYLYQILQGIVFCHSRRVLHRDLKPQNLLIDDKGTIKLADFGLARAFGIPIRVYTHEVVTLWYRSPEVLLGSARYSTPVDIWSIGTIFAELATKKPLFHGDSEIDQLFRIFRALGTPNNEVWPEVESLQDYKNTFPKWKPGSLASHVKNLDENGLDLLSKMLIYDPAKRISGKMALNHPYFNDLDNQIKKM
T1 sequence (P14635 whole entry partner): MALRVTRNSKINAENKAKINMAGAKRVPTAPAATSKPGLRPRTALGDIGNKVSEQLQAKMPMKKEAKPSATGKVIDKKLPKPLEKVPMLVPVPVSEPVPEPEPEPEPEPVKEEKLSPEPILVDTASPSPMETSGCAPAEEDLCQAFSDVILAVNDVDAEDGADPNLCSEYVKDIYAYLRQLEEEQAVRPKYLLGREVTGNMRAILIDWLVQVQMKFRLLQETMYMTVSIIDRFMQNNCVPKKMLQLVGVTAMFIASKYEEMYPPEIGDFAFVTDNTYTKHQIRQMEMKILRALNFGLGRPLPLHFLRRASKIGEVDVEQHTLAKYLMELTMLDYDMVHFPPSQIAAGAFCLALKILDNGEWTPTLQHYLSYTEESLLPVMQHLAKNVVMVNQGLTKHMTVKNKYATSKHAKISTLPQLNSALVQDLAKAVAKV
T3 sequence (Q00535 whole entry): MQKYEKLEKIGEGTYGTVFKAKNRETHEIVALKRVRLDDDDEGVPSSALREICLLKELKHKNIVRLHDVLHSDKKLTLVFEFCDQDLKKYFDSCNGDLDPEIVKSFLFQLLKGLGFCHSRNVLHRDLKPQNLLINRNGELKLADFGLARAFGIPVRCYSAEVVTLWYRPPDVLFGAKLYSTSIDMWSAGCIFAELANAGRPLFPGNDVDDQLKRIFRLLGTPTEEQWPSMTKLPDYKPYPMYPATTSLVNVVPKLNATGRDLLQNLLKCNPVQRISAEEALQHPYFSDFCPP
T3 sequence (Q15078 99-307 partner limits assumed): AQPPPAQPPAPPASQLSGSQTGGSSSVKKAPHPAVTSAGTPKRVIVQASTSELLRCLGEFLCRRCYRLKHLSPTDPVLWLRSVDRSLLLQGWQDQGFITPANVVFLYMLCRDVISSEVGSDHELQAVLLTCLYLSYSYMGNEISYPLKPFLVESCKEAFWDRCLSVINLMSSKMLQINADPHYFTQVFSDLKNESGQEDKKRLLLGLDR

Structure (SMILES) | CDK1/CDK7: Selectivity of CDK7 inhibition over CDK1 inhibition (CDK1) | IC50 (CDK1) | CDK2/CDK7: Selectivity of CDK7 inhibition over CDK2 inhibition (CDK2) | IC50 (CDK2) | CDK5/CDK7: Selectivity of CDK7 inhibition over CDK5 inhibition (CDK5) | IC50 (CDK5) | IC50 (CDK7/CycH/MNAT1) | DC50 (CDK7 protein) | Compound concentration that caused 50% CDK7 protein degradation in A2780 cells (DC50, nM) (CDK7 protein)
Cc1ncsc1-c1ccc(CNC(=O)[C@@H]2C[C@@H](O)CN2C(=O)[C@@H](NC(=O)CCOCCOCCNc2ccc3c(-c4ccccc4CNc4nc(O[C@@H]5CCCNC5)nc5c(C(C)C)cnn45)nccc3c2)C(C)(C)C)cc1 [Compound 15] | A (A indicates [fold] > 500) | > 1000 nM | A (A indicates [fold] > 500) | > 1000 nM | A (A indicates [fold] > 500) | > 1000 nM | ≤ 100 nM | ≤ 100 nM | –
CC(C)c1cnn2c(NCc3ccccc3-c3nccc4cc(NCCOCCOCCNC(=O)CNc5cccc6c5CN(C5CCC(=O)NC5=O)C6=O)ccc34)nc(O[C@@H]3CCCNC3)nc12 (stereo partly drawn) [Compound 14] | A (A indicates [fold] > 500) | > 1000 nM | A (A indicates [fold] > 500) | > 1000 nM | A (A indicates [fold] > 500) | > 1000 nM | ≤ 100 nM | 100 to 1000 nM | B or A
CNCC(=O)N[C@H](C(=O)N1C[C@@H](Oc2cccc(OCCOCCOCCNc3ccc4c(-c5ccccc5CNc5nc(O[C@@H]6CCCNC6)nc6c(C(C)C)cnn56)nccc4c3)c2)C[C@H]1C(=O)N[C@@H]1CCCc2ccccc21)C1CCCCC1 [Compound 12] | A (A indicates [fold] > 500) | > 1000 nM | A (A indicates [fold] > 500) | > 1000 nM | A (A indicates [fold] > 500) | > 1000 nM | ≤ 100 nM | > 1000 nM | –
CC(C)c1cnn2c(NCc3ccccc3-c3nccc4cc(NCCOCCOCCNC(=O)CNc5ccc6c(c5)C(=O)N(C5CCC(=O)NC5=O)C6=O)ccc34)nc(O[C@@H]3CCCNC3)nc12 (stereo partly drawn) [Compound 10] | A (A indicates [fold] > 500) | > 1000 nM | A (A indicates [fold] > 500) | > 1000 nM | A (A indicates [fold] > 500) | > 1000 nM | ≤ 100 nM | 100 to 1000 nM | B or A
CC(C)C[C@H](NC(=O)[C@@H](O)[C@H](N)Cc1ccccc1)C(=O)NCCOCCOCCNc1ccc2c(-c3ccccc3CNc3nc(O[C@@H]4CCCNC4)nc4c(C(C)C)cnn34)nccc2c1 [Compound 13] | A (A indicates [fold] > 500) | > 1000 nM | A (A indicates [fold] > 500) | > 1000 nM | A (A indicates [fold] > 500) | > 1000 nM | ≤ 100 nM | > 1000 nM | –

Other lines, results leading:

CDK1/CDK7: Selectivity of CDK7 inhibition over CDK1 inhibition (CDK1) | IC50 (CDK1) | CDK2/CDK7: Selectivity of CDK7 inhibition over CDK2 inhibition (CDK2) | IC50 (CDK2) | CDK5/CDK7: Selectivity of CDK7 inhibition over CDK5 inhibition (CDK5) | IC50 (CDK5) | IC50 (CDK7/CycH/MNAT1) | DC50 (CDK7 protein) | Compound concentration that caused 50% CDK7 protein degradation in A2780 cells (DC50, nM) (CDK7 protein) | Structure (SMILES)
A (A indicates [fold] > 500) | > 1000 nM | A (A indicates [fold] > 500) | > 1000 nM | A (A indicates [fold] > 500) | > 1000 nM | ≤ 100 nM | ≤ 100 nM | – | Cc1cc(C(C(=O)N2C[C@H](O)C[C@H]2C(=O)NCc2ccc(-c3scnc3C)cc2OCCOCCOCCNc2ccc3c(-c4ccccc4CNc4nc(O[C@@H]5CCCNC5)nc5c(C(C)C)cnn45)nccc3c2)C(C)C)on1 (stereo partly drawn) [Compound 24]
A (A indicates [fold] > 500) | > 1000 nM | A (A indicates [fold] > 500) | > 1000 nM | A (A indicates [fold] > 500) | > 1000 nM | ≤ 100 nM | ≤ 100 nM | – | Cc1ncsc1-c1ccc(CNC(=O)[C@@H]2C[C@@H](O)CN2C(=O)[C@@H](NC(=O)C2(F)CC2)C(C)(C)C)c(OCCOCCNc2ccc3c(-c4ccccc4CNc4nc(O[C@@H]5CCCNC5)nc5c(C(C)C)cnn45)nccc3c2)c1 [Compound 20]
A (A indicates [fold] > 500) | > 1000 nM | A (A indicates [fold] > 500) | > 1000 nM | A (A indicates [fold] > 500) | > 1000 nM | ≤ 100 nM | ≤ 100 nM | – | Cc1ncsc1-c1ccc([C@H](C)NC(=O)[C@@H]2C[C@@H](O)CN2C(=O)[C@@H](NC(=O)CCOCCOCCOCCNc2ccc3c(-c4ccccc4CNc4nc(O[C@@H]5CCCNC5)nc5c(C(C)C)cnn45)nccc3c2)C(C)(C)C)cc1 [Compound 28]
A (A indicates [fold] > 500) | > 1000 nM | A (A indicates [fold] > 500) | > 1000 nM | A (A indicates [fold] > 500) | > 1000 nM | ≤ 100 nM | ≤ 100 nM | – | Cc1ncsc1-c1ccc(CNC(=O)[C@@H]2C[C@@H](O)CN2C(=O)[C@@H](NC(=O)C2(F)CC2)C(C)(C)C)c(OCCOCCOCCOCCOCCNc2ccc3c(-c4ccccc4CNc4nc(O[C@@H]5CCCNC5)nc5c(C(C)C)cnn45)nccc3c2)c1 [Compound 21]
A (A indicates [fold] > 500) | > 1000 nM | B (B indicates 50 < [fold] ≤ 500) | > 1000 nM | B (B indicates 50 < [fold] ≤ 500) | > 1000 nM | ≤ 100 nM | ≤ 100 nM | – | CC(C)c1cnn2c(NCc3ccccc3-c3nccc4cc(NCC5CCN(CC6CCN(c7ccc8c(c7)C(=O)N(C7CCC(=O)NC7=O)C8=O)CC6)CC5)ccc34)nc(O[C@@H]3CCCNC3)nc12 (stereo partly drawn) [Compound 30]
A (A indicates [fold] > 500) | > 1000 nM | A (A indicates [fold] > 500) | > 1000 nM | A (A indicates [fold] > 500) | > 1000 nM | ≤ 100 nM | ≤ 100 nM | – | Cc1ncsc1-c1ccc(CNC(=O)[C@@H]2C[C@@H](O)CN2C(=O)[C@@H](NC(=O)C2(F)CC2)C(C)(C)C)c(OCCOCCOCCOCCNc2ccc3c(-c4ccccc4CNc4nc(O[C@@H]5CCCNC5)nc5c(C(C)C)cnn45)nccc3c2)c1 [Compound 19]
